Data from patent US20090253209A1, “Method of obtaining BZM purity, quantity of [123I]IBZM labeled ligand and quantity of BZM free ligand” (ATOMIC ENERGY COUNCIL - INSTITUTE OF NUCLEAR ENERGY RESEARCH, priority 2008, published 2009).

Columns and labels:
[1] = solution stability test of BZM solution by HPLC; format: physicochemical; settings: BZM dissolved in DMSO, room temperature, three days
Description: (7) For the solution stability test, a sum of BZM solution is put under a room temperature to be processed with HPLC analysis for three days, as shown in FIG. 12. Consequently, the difference of BZM retention time is 0.64%; the resolution difference is 5.81%; the purity difference is −0.37%; the difference of a linear least square regression slope is −3.18%; and linear correlation coefficients are all greater than 0.9997.

D2/D3 receptor (D2/D3R) = settings: in rats; compared with [^123I] IBZM; cited from earlier work

- solution stability (in words) [1]: good stability
- purity difference (solution stability) ([1]; HPLC analysis): −0.37%
Compound: CCN1CCC[C@H]1CNC(=O)c1c(O)cccc1OC [BZM, (S)-(-)-2-hydroxy-6-methoxy-N-[(1-ethyl-2-pyrrolidinyl)methyl]benzamide]
- bonding to D2/D3 receptor relative to [^123I] IBZM (D2/D3 receptor (D2/D3R)): far small bonding to D2/D3 receptor (D2/D3R) than [^123I] IBZM
